Assay results reported in ChEMBL document CHEMBL3885861, “Open TG-GATES”.

Species on record: Rattus norvegicus
Experiment: Open TG-GATES - Regimen: Single
Format: toxicity, organism-based, Sprague-Dawley
Set-up: regimen Single, gender Male, age 6 weeks
Settings: in vivo, po, route gavage; for Hb / Ht / Lym / MCH / MCHC / MCV / Mono / Neu / PT / Plat / RBC / Ret / WBC / APTT / Bas / Eos / Fbg: tissue Blood; for KIDNEY_L / KIDNEY_R / KIDNEY_TOTAL: tissue Kidney; for LIVER: tissue Liver; for A/G / ALP / ALT / AST / BUN / CRE / Ca / Cl / DBIL / GLC / IP / K / LDH / Na / PL / RALB / TBIL / TC / TG / TP / gamma-GTP: tissue Plasma
[1] = 15 mg/kg, 6 h, dose level Middle
[2] = 15 mg/kg, 9 h, dose level Middle
[3] = 15 mg/kg, 24 h, dose level Middle

## COc1ccc2c(c1)c(CC(=O)O)c(C)n2C(=O)c1ccc(Cl)cc1 [INDOMETHACIN]
[1]
  Hb: 14 g/dL
  Ht: 38.4%
  Lym: 71.4%
  MCH: 22.9 pg
  MCHC: 36.6%
  MCV: 62.7 fL
  Mono: 3.4%
  Neu: 22.8%
  PT: 12.2 s
  Plat: 116.9 x10_4/uL
  RBC: 613.2 x10_4/ul
  Ret: 7.8%
  WBC: 112.3 x10_2/uL
  KIDNEY_L: 1 g
  KIDNEY_R: 1 g
  KIDNEY_TOTAL: 2 g
  LIVER: 9.3 g
  A/G: 1.6
  ALP: 853.6 IU/L
  ALT: 39.6 IU/L
  AST: 70 IU/L
  BUN: 12.8 mg/dL
  CRE: 0.4 mg/dL
  Ca: 10.5 mg/dL
  Cl: 103.4 meq/L
  DBIL: 0.074 mg/dL
  GLC: 200.2 mg/dL
  IP: 9.5 mg/dL
  K: 4.1 meq/L
  LDH: 204.8 IU/L
  Na: 140.8 meq/L
  PL: 135.6 mg/dL
  RALB: 3.2 g/dL
  TBIL: 0.1 mg/dL
  TC: 74.4 mg/dL
  TG: 66.6 mg/dL
  TP: 5.3 g/dL
  gamma-GTP: 1.2 IU/L
[2]
  TERMINAL_BW: 220.7 g
  APTT: 18 s
  Bas: 0%
  Eos: 0.4%
  Fbg: 217.2 mg/dL
  Hb: 13.6 g/dL
  Ht: 37.1%
  Lym: 69.4%
  MCH: 22.4 pg
  MCHC: 36.6%
  MCV: 61.1 fL
  Mono: 3.4%
  Neu: 24.8%
  PT: 12.5 s
  Plat: 119.6 x10_4/uL
  RBC: 607 x10_4/ul
  Ret: 7.9%
  WBC: 101.8 x10_2/uL
  KIDNEY_L: 0.9 g
  KIDNEY_R: 0.9 g
  KIDNEY_TOTAL: 1.9 g
  LIVER: 8.7 g
  A/G: 1.6
  ALP: 719.4 IU/L
  ALT: 29.2 IU/L
  AST: 63.8 IU/L
  BUN: 13 mg/dL
  CRE: 0.3 mg/dL
  Ca: 10.4 mg/dL
  Cl: 104.2 meq/L
  DBIL: 0.07 mg/dL
  GLC: 186.8 mg/dL
  IP: 10 mg/dL
  K: 4 meq/L
  LDH: 202.2 IU/L
  Na: 141.4 meq/L
  PL: 125.4 mg/dL
  RALB: 3.2 g/dL
  TBIL: 0.1 mg/dL
  TC: 69.6 mg/dL
  TG: 36.8 mg/dL
  TP: 5.2 g/dL
  gamma-GTP: 1 IU/L
[3]
  TERMINAL_BW: 227.1 g
  APTT: 19.7 s
  Bas: 0.2%
  Eos: 0.8%
  Fbg: 294.2 mg/dL
  Hb: 10.8 g/dL
  Ht: 31%
  Lym: 57.8%
  MCH: 21.3 pg
  MCHC: 34.9%
  MCV: 61.2 fL
  Mono: 2.4%
  Neu: 37.8%
  PT: 12.2 s
  Plat: 94.5 x10_4/uL
  RBC: 509.2 x10_4/ul
  Ret: 7.9%
  WBC: 93.5 x10_2/uL
  KIDNEY_L: 1 g
  KIDNEY_R: 1 g
  KIDNEY_TOTAL: 2.1 g
  LIVER: 9.5 g
  A/G: 1.3
  ALP: 547.6 IU/L
  ALT: 28 IU/L
  AST: 57 IU/L
  BUN: 14.4 mg/dL
  CRE: 0.4 mg/dL
  Ca: 9.8 mg/dL
  Cl: 105.4 meq/L
  DBIL: 0.06 mg/dL
  GLC: 173.2 mg/dL
  IP: 9.6 mg/dL
  K: 4.2 meq/L
  LDH: 180.2 IU/L
  Na: 141.2 meq/L
  PL: 127 mg/dL
  RALB: 2.5 g/dL
  TBIL: 0.1 mg/dL
  TC: 72.8 mg/dL
  TG: 80.8 mg/dL
  TP: 4.3 g/dL
  gamma-GTP: 1.4 IU/L
50 mg/kg, 3 h, dose level High
  TERMINAL_BW: 226 g
  APTT: 21.4 s
  Bas: 0.2%
  Eos: 1%
  Fbg: 216.6 mg/dL
  Hb: 13.8 g/dL
  Ht: 37.8%
  Lym: 73.6%
  MCH: 22.2 pg
  MCHC: 36.4%
  MCV: 60.9 fL
  Mono: 2.4%
  Neu: 22%
  PT: 12 s
  Plat: 119.2 x10_4/uL
  RBC: 621.6 x10_4/ul
  Ret: 8.1%
  WBC: 114.1 x10_2/uL
  KIDNEY_L: 0.9 g
  KIDNEY_R: 0.9 g
  KIDNEY_TOTAL: 1.9 g
  LIVER: 9.8 g
  A/G: 1.6
  ALP: 971 IU/L
